# From patent US11014929B2, “Pyrazolopyrimidine compounds and uses thereof” (Incyte Corporation, priority 2016, dated 2021)
# Target: HPK1 (Homo sapiens (Human), UniProt Q92918)
# Test: HPK1 Kinase Binding Assay
# Conditions: LanthaScreen tracer 222 binding, active HPK1, one hour incubation at 25° C.
# Procedure: A stock solution of 1 mM test compound was prepared in DMSO. The compound plate was prepared by 3-fold and 11-point serial dilutions. 0.1 μL of the compound in DMSO was transferred from the compound plate to the white 384 well polystyrene plates. The assay buffer contained 50 mM HEPES, pH 7.5, 0.01% Tween-20, 5 mM MgCl2, 0.01% BSA, and 5 mM DTT. 5 μl of 4 nM active HPK1 (SignalChem M23-11G) prepared in the buffer was added to the plate. The enzyme concentration given was based on the given stock concentration reported by the vender. 5 μl of 18 nM tracer 222 (ThermoFisher PV6121) and 4 nM LanthaScreen Eu-Anti GST antibody (ThermoFisher PV5595) were added. After one hour incubation at 25° C., the plates were read on a PHERAstar FS plate reader (BMG Labtech). Ki values were determined.
# Sequence of HPK1 (Q92918 1-346): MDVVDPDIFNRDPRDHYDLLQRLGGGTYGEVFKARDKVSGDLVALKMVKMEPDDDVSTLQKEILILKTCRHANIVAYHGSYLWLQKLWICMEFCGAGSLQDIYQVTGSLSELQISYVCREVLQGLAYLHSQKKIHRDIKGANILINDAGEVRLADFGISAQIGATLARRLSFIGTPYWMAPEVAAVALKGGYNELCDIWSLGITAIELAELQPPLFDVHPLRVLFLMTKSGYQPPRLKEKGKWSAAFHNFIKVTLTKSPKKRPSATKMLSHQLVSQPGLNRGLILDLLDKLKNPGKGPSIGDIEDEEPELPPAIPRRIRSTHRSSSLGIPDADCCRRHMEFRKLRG
row,Ki [nM],Structure (SMILES)
1,≤ 100,"COc1cccc(F)c1-c1ncc2[nH]nc(-c3ccc(N4CCN(C(C)=O)CC4)nc3)c2n1 [Example 54, 1-(4-(5-(5-(2-Fluoro-6-methoxyphenyl)-1H-pyrazolo[4,3-d]pyrimidin-3-yl)pyridin-2-yl)piperazin-1-yl)ethan-1-one]"
2,≤ 100,"Cc1cccc(F)c1-c1ncc2[nH]nc(-c3ccc(N4CCCC(O)C4)cc3)c2n1 (stereo not drawn) [Example 57, 1-(4-(5-(2-Fluoro-6-methylphenyl)-1H-pyrazolo[4,3-d]pyrimidin-3-yl)phenyl)piperidin-3-ol]"
3,≤ 100,"Cc1cccc(F)c1-c1ncc2[nH]nc(-c3ccc(N4CCC(O)C4)cc3)c2n1 (stereo not drawn) [Example 60, 1-(4-(5-(2-Fluoro-6-methylphenyl)-1H-pyrazolo[4,3-d]pyrimidin-3-yl)phenyl)pyrrolidin-3-ol]"
4,≤ 100,"CNCc1cc(F)c(-c2ncc3[nH]nc(-c4ccc(C(=O)NC)nc4)c3n2)c(F)c1 [Example 61, 5-(5-(2,6-Difluoro-4-((methylamino)methyl)phenyl)-1H-pyrazolo[4,3-d]pyrimidin-3-yl)-N-methylpicolinamide]"
5,≤ 100,"CNCc1cc(F)c(-c2ncc3[nH]nc(-c4ccc(N5CCN(CC(C)(C)O)CC5)nc4)c3n2)c(F)c1 [Example 70, 1-(4-(5-(5-(2,6-Difluoro-4-((methylamino)methyl)phenyl)-1H-pyrazolo[4,3-d]pyrimidin-3-yl)pyridin-2-yl)piperazin-1-yl)-2-methylpropan-2-ol]"
6,≤ 100,"CNCc1cc(F)c(-c2ncc3[nH]nc(-c4ccc(N5CCCC(C)(CO)C5)nc4)c3n2)c(F)c1 (stereo not drawn) [Example 71, (1-(5-(5-(2,6-Difluoro-4-((methylamino)methyl)phenyl)-1H-pyrazolo[4,3-d]pyrimidin-3-yl)pyridin-2-yl)-3-methylpiperidin-3-yl)methanol]"
7,≤ 100,"CNCc1cc(F)c(-c2ncc3[nH]nc(-c4ccc(N5CCN(C(C)=O)CC5)nc4)c3n2)c(C(F)(F)F)c1 [Example 77, 1-(4-(5-(5-(2-Fluoro-4-((methylamino)methyl)-6-(trifluoromethyl)phenyl)-1H-pyrazolo[4,3-d]pyrimidin-3-yl)pyridin-2-yl)piperazin-1-yl)ethanone]"
8,≤ 100,"CNCc1cc(C)c(-c2ncc3[nH]nc(-c4cnn(-c5ccccc5C#N)c4)c3n2)c(F)c1 [Example 79, 2-(4-(5-(2-Fluoro-6-methyl-4-((methylamino)methyl)phenyl)-1H-pyrazolo[4,3-d]pyrimidin-3-yl)-1H-pyrazol-1-yl)benzonitrile]"

# More lines, now with the values behind:
row,Structure (SMILES),Ki [nM]
1,"COc1cccc(F)c1-c1ncc2[nH]nc(/C=C/c3ccc(N4CCN(C)CC4)cc3)c2n1 [Example 55, (E)-5-(2-Fluoro-6-methoxyphenyl)-3-(4-(4-methylpiperazin-1-yl)styryl)-1H-pyrazolo[4,3-d]pyrimidine]",≤ 100
2,"CN1CCN(c2ccc(-c3n[nH]c4cnc(-c5c(F)ccc6c5CCNC6)nc34)cc2)CC1 [Example 56, 6-Fluoro-5-(3-(4-(4-methylpiperazin-1-yl)phenyl)-1H-pyrazolo[4,3-d]pyrimidin-5-yl)-1,2,3,4-tetrahydroisoquinoline]",≤ 100
3,"Cc1cccc(F)c1-c1ncc2[nH]nc(-c3ccc(N4CCC(C#N)CC4)cc3)c2n1 [Example 58, 1-(4-(5-(2-Fluoro-6-methylphenyl)-1H-pyrazolo[4,3-d]pyrimidin-3-yl)phenyl)piperidine-4-carbonitrile]",≤ 100
4,"Cc1cccc(F)c1-c1ncc2[nH]nc(-c3ccc(N4CCNCC4)cc3)c2n1 [Example 59, 5-(2-Fluoro-6-methylphenyl)-3-(4-(piperazin-1-yl)phenyl)-1H-pyrazolo[4,3-d]pyrimidine]",≤ 100
5,"CNCc1cc(F)c(-c2ncc3[nH]nc(-c4ccc(C(=O)NC)c(F)c4)c3n2)c(F)c1 [Example 62, 4-(5-(2,6-Difluoro-4-((methylamino)methyl)phenyl)-1H-pyrazolo[4,3-d]pyrimidin-3-yl)-2-fluoro-N-methylbenzamide]",≤ 100
6,"CNCc1cc(F)c(-c2ncc3[nH]nc(-c4ccc(OC)cc4)c3n2)c(F)c1 [Example 63, 1-(3,5-Difluoro-4-(3-(4-methoxyphenyl)-1H-pyrazolo[4,3-d]pyrimidin-5-yl)phenyl)-N-methylmethanamine]",≤ 100
7,"CNCc1cc(F)c(-c2ncc3[nH]nc(-c4cccc(C#N)c4)c3n2)c(F)c1 [Example 64, 3-(5-(2,6-Difluoro-4-((methylamino)methyl)phenyl)-1H-pyrazolo[4,3-d]pyrimidin-3-yl)benzonitrile]",≤ 100
8,"CNCc1cc(F)c(-c2ncc3[nH]nc(-c4ccc(C5CCNCC5)cc4)c3n2)c(F)c1 [Example 65, 1-(3,5-Difluoro-4-(3-(4-(piperidin-4-yl)phenyl)-1H-pyrazolo[4,3-d]pyrimidin-5-yl)phenyl)-N-methylmethanamine]",≤ 100
9,"CNCc1cc(F)c(-c2ncc3[nH]nc(-c4ccc(C5CCOCC5)cc4)c3n2)c(F)c1 [Example 66, 1-(3,5-Difluoro-4-(3-(4-(tetrahydro-2H-pyran-4-yl)phenyl)-1H-pyrazolo[4,3-d]pyrimidin-5-yl)phenyl)-N-methylmethanamine]",≤ 100
10,"CCN1CCN(c2ccc(-c3n[nH]c4cnc(-c5c(F)cc(CNC)cc5F)nc34)cc2)CC1 [Example 67, 1-(4-(3-(4-(4-Ethylpiperazin-1-yl)phenyl)-1H-pyrazolo[4,3-d]pyrimidin-5-yl)-3,5-difluorophenyl)-N-methylmethanamine]",≤ 100
11,"CNCc1cc(F)c(-c2ncc3[nH]nc(-c4cnc(N5CCOCC5)c(C#N)c4)c3n2)c(F)c1 [Example 68, 5-(5-(2,6-Difluoro-4-((methylamino)methyl)phenyl)-1H-pyrazolo[4,3-d]pyrimidin-3-yl)-2-morpholinonicotinonitrile]",≤ 100
12,"CNCc1cc(F)c(-c2ncc3[nH]nc(-c4ccnc(N5CCOCC5)c4F)c3n2)c(F)c1 [Example 69, 1-(3,5-Difluoro-4-(3-(3-fluoro-2-morpholinopyridin-4-yl)-1H-pyrazolo[4,3-d]pyrimidin-5-yl)phenyl)-N-methylmethanamine]",≤ 100
13,"CNCc1cc(F)c(-c2ncc3[nH]nc(-c4ccc(N5CCN(CCO)CC5)cc4)c3n2)c(F)c1 [Example 73, 2-(4-(4-(5-(2,6-Difluoro-4-((methylamino)methyl)phenyl)-1H-pyrazolo[4,3-d]pyrimidin-3-yl)phenyl)piperazin-1-yl)ethanol]",≤ 100
14,"CNCc1cc(F)c(-c2ncc3[nH]nc(-c4ccc(N5CCN(S(C)(=O)=O)CC5)nc4)c3n2)c(F)c1 [Example 74, 1-(3,5-Difluoro-4-(3-(6-(4-(methylsulfonyl)piperazin-1-yl)pyridin-3-yl)-1H-pyrazolo[4,3-d]pyrimidin-5-yl)phenyl)-N-methylmethanamine]",≤ 100
15,"CCN(C)C(=O)N1CCN(c2ccc(-c3n[nH]c4cnc(-c5c(F)cc(CNC)cc5F)nc34)cn2)CC1 [Example 75, 4-(5-(5-(2,6-Difluoro-4-((methylamino)methyl)phenyl)-1H-pyrazolo[4,3-d]pyrimidin-3-yl)pyridin-2-yl)-N-ethyl-N-methylpiperazine-1-carboxamide]",≤ 100
16,"CNCc1cc(C)c(-c2ncc3[nH]nc(-c4cnn(C)c4)c3n2)c(F)c1 [Example 78, 1-(3-Fluoro-5-methyl-4-(3-(1-methyl-1H-pyrazol-4-yl)-1H-pyrazolo[4,3-d]pyrimidin-5-yl)phenyl)-N-methylmethanamine]",≤ 100
